Experimental data as given in patent US10858352B2, “Pharmaceutical compounds” (Heptares Therapeutics Limited, priority 2018, dated 2020).
Like-named read-outs stand apart in the source and are kept apart here.

Experiments:
Type in all cases: cell-based
[1] = biological target: T1, human muscarinic M2 receptor (Homo sapiens, UniProt P08172); test: Alphascreen Surefire phospho-ERK1/2 functional assay, M2; conditions: for Emax: CHO, read-out: % Emax cf. ACh (M2); for % Emax cf. ACh (M2): Emax relative to ACh
T1 sequence (P08172 1-466): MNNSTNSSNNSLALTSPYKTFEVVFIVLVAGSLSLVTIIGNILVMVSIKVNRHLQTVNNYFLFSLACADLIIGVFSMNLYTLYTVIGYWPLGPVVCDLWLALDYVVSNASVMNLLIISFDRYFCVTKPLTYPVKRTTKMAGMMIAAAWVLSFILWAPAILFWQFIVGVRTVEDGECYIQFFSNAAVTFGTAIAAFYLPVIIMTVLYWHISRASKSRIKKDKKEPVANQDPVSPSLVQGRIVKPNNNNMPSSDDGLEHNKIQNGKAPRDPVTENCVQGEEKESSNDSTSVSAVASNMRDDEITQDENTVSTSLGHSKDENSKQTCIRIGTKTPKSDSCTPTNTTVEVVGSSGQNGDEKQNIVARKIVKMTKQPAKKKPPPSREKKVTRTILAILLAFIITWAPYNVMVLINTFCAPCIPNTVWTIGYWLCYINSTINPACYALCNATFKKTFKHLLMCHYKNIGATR
Experimental: (§1) ERK1/2 phosphorylation is a downstream consequence of both Gq/11 and Gi/o protein coupled receptor activation, making it highly suitable for the assessment of M1, M3 (Gq/11 coupled) and M2, M4 receptors (Gi/o coupled), rather than using different assay formats for different receptor subtypes. CHO cells stably expressing the human muscarinic M1, M2, M3 or M4 receptor were plated (25K/well) onto 96-well tissue culture plates in MEM-alpha+10% dialysed FBS. Once adhered, cells were serum-starved overnight. Agonist stimulation was performed by the addition of 5 μL agonist to the cells for 5 min (37° C.). Media was removed and 50 μL of lysis buffer added. After 15 min, a 4 μL sample was transferred to 384-well plate and 7 μL of detection mixture added. […]

[2] = biological target: T2, human muscarinic M3 receptor (Homo sapiens, UniProt P20309); test: Alphascreen Surefire phospho-ERK1/2 functional assay, M3; conditions: for Emax: CHO, read-out: % Emax cf. ACh (M3); for % Emax cf. ACh (M3): Emax relative to ACh
T2 construct: expressed in transfected cells
Experimental: as §1

[3] = biological target: T3, human muscarinic M1 receptor (Homo sapiens, UniProt P11229); test: Alphascreen Surefire phospho-ERK1/2 functional assay, M1; conditions: for EC50 / pEC50 M1: agonist 5 min, 37° C.
T3 sequence (P11229 1-460): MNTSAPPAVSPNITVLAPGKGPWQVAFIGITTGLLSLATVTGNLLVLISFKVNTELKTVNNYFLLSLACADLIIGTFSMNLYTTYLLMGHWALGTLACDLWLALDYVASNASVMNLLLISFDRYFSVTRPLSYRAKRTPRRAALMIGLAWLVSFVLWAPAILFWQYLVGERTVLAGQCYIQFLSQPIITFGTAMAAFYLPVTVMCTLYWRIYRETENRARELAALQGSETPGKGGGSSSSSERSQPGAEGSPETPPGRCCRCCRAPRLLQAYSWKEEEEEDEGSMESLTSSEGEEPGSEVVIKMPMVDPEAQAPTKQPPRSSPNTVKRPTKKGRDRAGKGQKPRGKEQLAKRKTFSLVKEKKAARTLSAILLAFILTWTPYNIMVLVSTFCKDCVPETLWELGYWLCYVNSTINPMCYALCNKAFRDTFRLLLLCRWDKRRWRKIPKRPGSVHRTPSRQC
How it was run: (§2)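 CHO cells stably expressing human M1, M2, M3 or M4 receptor, serum-starved overnight, then stimulated with agonist for 5 min at 37 °C. Cells lysed for 15 min and phospho-ERK1/2 detected in the lysate by AlphaScreen SureFire.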

[4] = biological target: T4, human muscarinic M4 receptor (Homo sapiens, UniProt P08173); test: Alphascreen Surefire phospho-ERK1/2 functional assay, M4; conditions: for EC50 / % Emax cf. ACh (M4) / pEC50 M4: CHO cells stably expressing human M4; for EC50 / pEC50 M4: agonist 5 min, 37° C.; for EC50: read-out: pEC50 M4 (converted)
T4 construct: expressed in transfected cells
T4 sequence (P08173 1-479): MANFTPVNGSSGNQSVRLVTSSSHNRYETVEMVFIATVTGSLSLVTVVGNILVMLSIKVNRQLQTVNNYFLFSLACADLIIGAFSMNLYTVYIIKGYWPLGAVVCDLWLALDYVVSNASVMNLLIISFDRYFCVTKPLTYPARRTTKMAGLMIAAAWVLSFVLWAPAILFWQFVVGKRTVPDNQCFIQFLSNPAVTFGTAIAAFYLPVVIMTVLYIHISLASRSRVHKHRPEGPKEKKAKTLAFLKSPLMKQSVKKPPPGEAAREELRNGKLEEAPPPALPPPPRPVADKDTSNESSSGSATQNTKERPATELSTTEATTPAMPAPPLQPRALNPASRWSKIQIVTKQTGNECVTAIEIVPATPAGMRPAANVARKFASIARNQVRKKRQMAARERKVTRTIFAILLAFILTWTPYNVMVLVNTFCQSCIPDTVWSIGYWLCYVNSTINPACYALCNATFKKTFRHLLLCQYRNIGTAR
How it was run: as §2

[5] = CHO cells stably expressing human M1, Emax relative to ACh
[6] = CHO cells stably expressing human M2
[7] = CHO cells stably expressing human M2, agonist 5 min, 37° C.
[8] = CHO cells stably expressing human M3
[9] = CHO cells stably expressing human M3, agonist 5 min, 37° C.
[10] = CHO cells stably expressing human M1

T2 sequence (P20309 whole entry): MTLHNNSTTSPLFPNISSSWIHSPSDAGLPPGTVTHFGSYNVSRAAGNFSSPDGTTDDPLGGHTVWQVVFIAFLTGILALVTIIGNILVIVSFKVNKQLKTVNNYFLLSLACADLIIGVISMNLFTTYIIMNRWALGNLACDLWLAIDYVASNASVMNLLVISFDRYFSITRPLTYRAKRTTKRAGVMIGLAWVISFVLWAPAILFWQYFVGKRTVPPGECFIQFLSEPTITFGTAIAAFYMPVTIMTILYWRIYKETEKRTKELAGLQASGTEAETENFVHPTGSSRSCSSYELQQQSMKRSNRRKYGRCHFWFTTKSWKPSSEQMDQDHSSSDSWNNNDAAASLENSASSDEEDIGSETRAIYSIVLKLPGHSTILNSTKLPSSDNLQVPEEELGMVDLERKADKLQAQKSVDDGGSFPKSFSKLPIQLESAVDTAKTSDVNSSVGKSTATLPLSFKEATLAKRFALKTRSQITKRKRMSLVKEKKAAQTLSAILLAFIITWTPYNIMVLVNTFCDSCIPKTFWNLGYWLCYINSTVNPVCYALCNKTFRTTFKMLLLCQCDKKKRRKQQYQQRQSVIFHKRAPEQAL

Row | % Emax cf. ACh (M1) [3, 5] | % Emax cf. ACh (M4) ([4]; Emax relative to ACh) | % Emax cf. ACh (M2) [1, 6] | pEC50 M2 [1, 7] | % Emax cf. ACh (M3) [2, 8] | pEC50 M3 [2, 9] | pEC50 M1 [3, 10] | pEC50 M4 [4] | Compound | EC50 ([1]; CHO cells stably expressing human M2, agonist 5 min, 37° C., read-out: pEC50 M2 (converted)) [µM] | Emax [1] [%] | EC50 ([2]; CHO cells stably expressing human M3, agonist 5 min, 37° C., read-out: pEC50 M3 (converted)) [µM] | Emax [2] [%] | EC50 ([3]; CHO cells stably expressing human M1, read-out: pEC50 M1 (converted)) [µM] | Emax ([3]; CHO, read-out: % Emax cf. ACh (M1), CHO cells stably expressing human M1, Emax relative to ACh) [%] | EC50 [4] [µM] | Emax ([4]; CHO, read-out: % Emax cf. ACh (M4), CHO cells stably expressing human M4, Emax relative to ACh) [%] | EC50 [1] [µM] | EC50 [2] [µM] | EC50 ([3]; pEC50 M1, CHO cells stably expressing human M1) [µM]
1 | (102) % | (22) % | (31) % | <4.70 | (50) % | <4.70 | 6.70 | <4.70 | CCN(CC)C(=O)[C@H]1[C@@H]2CN(C3CC4CCC(C3)N4c3nc(C)no3)C[C@@H]21 (single isomer, unassigned; isomer 1) [12-25 Isomer 1] |  |  |  |  |  |  |  |  |  |  | 
2 | (102) % | (108) % | (81) % | 5.68 | (52) % | 4.90 | 8.06 | 6.23 | Cc1noc(N2C3COCC2CC(N2C[C@@H]4[C@H](C2)[C@H]4C(=O)N(C)C(C)C)C3)n1 (single isomer, unassigned; isomer 2) [12-22 Isomer 2] |  |  |  |  |  |  |  |  |  |  | 
3 | (102) % | (83) % | (60) % | 5.33 | (25) % | <4.70 | 7.58 | 6.02 | CCN(C)C(=O)[C@H]1[C@@H]2CN(C3CC4CCC(C3)N4c3nc(C)no3)C[C@@H]21 (single isomer, unassigned; isomer 2) [12-24 Isomer 2] |  |  |  |  |  |  |  |  |  |  | 
4 | (91) % | (119) % | (84) % | 6.15 | (57) % | 5.29 | 8.55 | 6.82 | CCN(CC)C(=O)[C@H]1[C@@H]2CN(C3CC4CCC(C3)N4c3nc(C)no3)C[C@@H]21 (single isomer, unassigned; isomer 2) [12-25 Isomer 2] |  |  |  |  |  |  |  |  |  |  | 

Second part, the compound before the results:

Row | Compound | % Emax cf. ACh (M1) [3, 5] | % Emax cf. ACh (M4) ([4]; Emax relative to ACh) | % Emax cf. ACh (M2) [1, 6] | pEC50 M2 [1, 7] | % Emax cf. ACh (M3) [2, 8] | pEC50 M3 [2, 9] | pEC50 M1 [3, 10] | pEC50 M4 [4] | EC50 ([1]; CHO cells stably expressing human M2, agonist 5 min, 37° C., read-out: pEC50 M2 (converted)) [µM] | Emax [1] [%] | EC50 ([2]; CHO cells stably expressing human M3, agonist 5 min, 37° C., read-out: pEC50 M3 (converted)) [µM] | Emax [2] [%] | EC50 ([3]; CHO cells stably expressing human M1, read-out: pEC50 M1 (converted)) [µM] | Emax ([3]; CHO, read-out: % Emax cf. ACh (M1), CHO cells stably expressing human M1, Emax relative to ACh) [%] | EC50 [4] [µM] | Emax ([4]; CHO, read-out: % Emax cf. ACh (M4), CHO cells stably expressing human M4, Emax relative to ACh) [%] | EC50 [1] [µM] | EC50 [2] [µM] | EC50 ([3]; pEC50 M1, CHO cells stably expressing human M1) [µM]
5 | CCC1(NC(=O)C2CCN(C3CC4CCC(C3)N4c3nc(C)no3)CC2)CCC1 (single isomer, unassigned) [12-8 Isomer 2] |  |  |  |  |  |  |  |  | 2.45 | 33 | > 20 | 3 | 0.135 | 104 | 0.933 | 109 |  |  | 
6 | CC1(NC(=O)C2CCN(C3CC4CCC(C3)N4c3nc(C(F)(F)F)no3)CC2)CCC1 (single isomer, unassigned) [12-14 Isomer 2] | (115) % | (40) % |  |  |  |  |  |  |  | 25 |  | 9 |  |  | 0.331 |  | > 20 | > 20 | 0.0186
7 | CC(=O)N(CC1(C)CCC1)C1CCN(C2CC3CCC(C2)N3c2nc(C)no2)CC1 (single isomer, unassigned; isomer 1) [12-18 Isomer 1] | (87) % | (62) % | (27) % | 5.23 | (15) % | <4.70 | 7.00 | 6.68 |  |  |  |  |  |  |  |  |  |  | 
8 | O=C1CC2(CCN(C3CC4CCC(C3)N4c3nc(C(F)(F)F)no3)CC2)CN1 (single isomer, unassigned; isomer 2) [12-3 Isomer 2] | (103) % | (23) % | (14) % | <4.70 | (70) % | <4.70 | 8.30 | 6.70 |  |  |  |  |  |  |  |  |  |  | 
9 | CC(=O)N(CC1(C)CCC1)C1CCN(C2CC3CCC(C2)N3c2nc(C)no2)CC1 (single isomer, unassigned; isomer 2) [12-18 Isomer 2] | (92) % | (92) % | (90) % | 6.59 | (48) % | 5.72 | 8.63 | 7.83 |  |  |  |  |  |  |  |  |  |  | 
10 | CCN(CC)C(=O)[C@H]1[C@@H]2CN(C3CC4COCC(C3)N4c3nc(C(F)(F)F)no3)C[C@@H]21 (single isomer, unassigned; isomer 2) [12-23 Isomer 2] | (132) % | (30) % | (13) % | <4.70 | (25) % | <4.70 | 7.59 | 6.92 |  |  |  |  |  |  |  |  |  |  | 
